# Results: patent publication US20130096149A1, “HETEROARYL COMPOUNDS AND COMPOSITIONS AS PROTEIN KINASE INHIBITORS” (NOVARTIS AG, priority 2010, published 2013)
# pIC50: −log10 of the molar value.
# Target: b-Raf(V600E) (Homo sapiens, UniProt P15056, V600E)
# Assay: Raf/Mek Amplified Luminescence Proximity Homogeneous Assay (Alpha Screen)
# Type: biochemical
# Conditions: b-Raf(V600E) approximately 4 pM; biotinylated Mek, kinase dead approximately 10 nM; ATP 10 μM; pre-incubation 60 minutes; reaction 3 hours at room temperature; read-out: mut-bRaf IC50
# Procedure: Raf/Mek Amplified Luminescence Proximity Homogeneous Assay
# Assay buffer: 50 mM Tris, pH 7.5, 15 mM MgCl2, 0.01% Bovine Serum Albumin (BSA), 1 mM dithiothreitol (DTT) Stop buffer: 60 mM ethylenediaminetetraacetic acid (EDTA), 0.01% Tween® 20 Bead buffer: 50 mM Tris, pH 7.5, 0.01% Tween® 20 […]
# biotinylated Mek, kinase dead
# Alpha Screen detection kit (available from PerkinElmer™, #6760617R)
# Anti phospho-MEK1/2 (available from Cell Signaling Technology, Inc. #9121) 384 well assay plates (White Greiner® plates, #781207) […]
# b-Raf(V600E) approximately 4 pM […]
# biotinylated Mek, Kinase dead approximately 10 nM
# Pre-incubation time with compounds 60 minutes at room temperature
# Reaction time 1 or 3 hours at room temperature
# Raf and biotinylated Mek, kinase dead, were combined at 2× final concentrations in assay buffer (50 mM Tris, pH 7.5, 15 mM MgCl2, 0.01% BSA and 1 mM DTT) and dispensed 10 μl per well in assay plates (Greiner white 384 well assay plates #781207) containing 0.5 μl of 40× of a raf kinase inhibitor test compound diluted in 100% DMSO. The plate was incubated for 60 minutes at room temperature.
# The Raf kinase activity reaction was started by the addition of 10 μL per well of 2×ATP diluted in assay buffer. After 3 hours (bRaf(V600E)) or 1 hour (c-Raf), the reactions were stopped with the addition of 10 μL of stop reagent (60 mM EDTA). Phosphorylated product was measured using a rabbit anti-p-MEK (Cell Signaling, #9121) antibody and the Alpha Screen IgG (ProteinA) detection Kit (PerkinElmer #6760617R), by the addition of 30 μL to the well of a mixture of the antibody (1:2000 dilution) and detection beads (1:2000 dilution of both beads) in bead buffer (50 mM Tris, pH 7.5, 0.01% Tween20). The additions were carried out under dark conditions to protect the detection beads from light. A lid was placed on top of the plate and incubated for 1 hour at room temperature, then the luminescence was read on a PerkinElmer Envision instrument. The concentration of each compound for 50% inhibition (IC50) was calculated by non-linear regression using XL Fit data analysis software.
# b-Raf(V600E), sequence (P15056 whole entry V600E): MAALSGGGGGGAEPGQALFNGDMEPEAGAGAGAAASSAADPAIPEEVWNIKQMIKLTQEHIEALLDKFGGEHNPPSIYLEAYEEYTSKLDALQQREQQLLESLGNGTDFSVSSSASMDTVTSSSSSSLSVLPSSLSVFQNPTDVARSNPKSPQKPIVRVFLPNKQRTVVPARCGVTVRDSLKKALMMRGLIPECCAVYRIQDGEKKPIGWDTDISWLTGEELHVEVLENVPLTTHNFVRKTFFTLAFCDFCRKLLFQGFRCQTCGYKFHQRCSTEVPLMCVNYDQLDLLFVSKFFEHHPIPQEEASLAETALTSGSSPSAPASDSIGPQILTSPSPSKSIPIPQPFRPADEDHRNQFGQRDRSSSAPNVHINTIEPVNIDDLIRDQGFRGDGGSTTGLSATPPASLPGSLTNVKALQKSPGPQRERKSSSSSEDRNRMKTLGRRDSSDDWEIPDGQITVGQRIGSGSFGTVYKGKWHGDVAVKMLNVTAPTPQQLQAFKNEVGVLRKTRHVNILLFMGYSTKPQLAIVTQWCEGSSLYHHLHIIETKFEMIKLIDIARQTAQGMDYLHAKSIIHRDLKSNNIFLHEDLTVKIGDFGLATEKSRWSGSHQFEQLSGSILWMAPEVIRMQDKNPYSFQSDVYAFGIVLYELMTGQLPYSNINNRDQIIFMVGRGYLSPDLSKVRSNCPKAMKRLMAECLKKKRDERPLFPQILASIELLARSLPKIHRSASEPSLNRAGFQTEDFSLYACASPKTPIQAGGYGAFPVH
row,pIC50,Compound
1,9.60,"COC(=O)N[C@@H](C)CNc1nccc(-c2sc(C(C)(C)C)nc2-c2cc(F)cc(NS(C)(=O)=O)c2Cl)n1 [Example 1, (S)-methyl 1-(4-(2-tert-butyl-4-(2-chloro-5-fluoro-3-(methylsulfonamido)phenyl)thiazol-5-yl)pyrimidin-2-ylamino)propan-2-ylcarbamate]"
2,9.36,"CCCS(=O)(=O)Nc1cc(F)cc(-c2nc(C(C)(C)C)sc2-c2ccncn2)c1Cl [Example 2, N-(3-(2-tert-butyl-5-(pyrimidin-4-yl)thiazol-4-yl)-2-chloro-5-fluorophenyl)propane-1-sulfonamide]"
3,9.66,"COC(=O)N[C@@H](C)CNc1nccc(-c2sc(C3CC3)nc2-c2cc(F)cc(NS(C)(=O)=O)c2Cl)n1 [Example 3, (S)-methyl 1-(4-(4-(2-chloro-5-fluoro-3-(methylsulfonamido)phenyl)-2-cyclopropylthiazol-5-yl)pyrimidin-2-ylamino)propan-2-ylcarbamate]"
4,9.92,"COC(=O)N[C@@H](C)CNc1nccc(-c2sc(C3CC3)nc2-c2cc(Cl)cc(NS(C)(=O)=O)c2F)n1 [Example 4, (S)-methyl 1-(4-(4-(5-chloro-2-fluoro-3-(methylsulfonamido)phenyl)-2-cyclopropylthiazol-5-yl)pyrimidin-2-ylamino)propan-2-ylcarbamate]"
5,9.09,"COC(=O)N[C@@H](C)CNc1nccc(-c2oc(C3CC3)nc2-c2cc(Cl)cc(NS(C)(=O)=O)c2F)n1 [Example 5, (S)-methyl 1-(4-(4-(5-chloro-2-fluoro-3-(methylsulfonamido)phenyl)-2-cyclopropyloxazol-5-yl)pyrimidin-2-ylamino)propan-2-ylcarbamate]"
6,7.55,"CCCS(=O)(=O)Nc1cccc(-c2nc(C3CC3)oc2-c2ccnc(NC)n2)c1F [Example 6, N-(3-(2-cyclopropyl-5-(2-(methylamino)pyrimidin-4-yl)oxazol-4-yl)-2-fluorophenyl)propane-1-sulfonamide]"
7,9.66,"CCCS(=O)(=O)Nc1cccc(-c2nc(C(C)(C)C)sc2-c2ccnc(NC[C@H](C)NC(=O)OC)n2)c1Cl [Example 7, (S)-methyl 1-(4-(2-tert-butyl-4-(2-chloro-3-(propylsulfonamido)phenyl)thiazol-5-yl)pyrimidin-2-ylamino)propan-2-ylcarbamate]"
8,9.85,CCCS(=O)(=O)Nc1cc(F)cc(-c2nc(C(C)(C)C)sc2-c2ccnc(NC)n2)c1Cl [Example 8]
9,9.85,CCCS(=O)(=O)Nc1cc(F)cc(-c2nc(C(C)(C)C)sc2-c2ccnc(N)n2)c1Cl [Example 9]
10,9.48,CCCS(=O)(=O)Nc1cc(F)cc(-c2nc(C(C)(C)C)sc2-c2ccnc(NC[C@H](C)NC(=O)OC)n2)c1Cl [Example 10]
11,8.22,CNc1nccc(-c2sc(C(C)(C)C)nc2-c2cc(F)cc(NS(C)(=O)=O)c2Cl)n1 [Example 11]
12,8.05,CC(C)(C)c1nc(-c2cc(F)cc(NS(C)(=O)=O)c2Cl)c(-c2ccnc(N)n2)s1 [Example 12]
13,9.89,CCCS(=O)(=O)Nc1cc(F)cc(-c2nc(C3CC3)sc2-c2ccnc(N)n2)c1Cl [Example 13]
14,10.04,CCCS(=O)(=O)Nc1cc(F)cc(-c2nc(C3CC3)sc2-c2ccnc(NC)n2)c1Cl [Example 14]
15,10.11,CCCS(=O)(=O)Nc1cc(F)cc(-c2nc(C3CC3)sc2-c2ccnc(NC[C@H](C)NC(=O)OC)n2)c1Cl [Example 15]
16,7.82,CS(=O)(=O)Nc1cc(F)cc(-c2nc(C3CC3)sc2-c2ccnc(N)n2)c1Cl [Example 16]
17,8.57,CS(=O)(=O)Nc1cc(F)cc(-c2nc(C3CC3)oc2-c2ccnc(N)n2)c1Cl [Example 17]
18,7.74,CNc1nccc(-c2oc(C3CC3)nc2-c2cc(F)cc(NS(C)(=O)=O)c2Cl)n1 [Example 18]
19,8.82,COC(=O)N[C@@H](C)CNc1nccc(-c2oc(C3CC3)nc2-c2cc(F)cc(NS(C)(=O)=O)c2Cl)n1 [Example 19]
20,8.52,CNc1nccc(-c2sc(C3CC3)nc2-c2cc(Cl)cc(NS(C)(=O)=O)c2F)n1 [Example 20]
21,8.24,CS(=O)(=O)Nc1cc(Cl)cc(-c2nc(C3CC3)sc2-c2ccnc(N)n2)c1F [Example 21]
22,8.48,CS(=O)(=O)Nc1cc(Cl)cc(-c2nc(C3CC3)oc2-c2ccnc(N)n2)c1F [Example 22]
23,7.74,CNc1nccc(-c2oc(C3CC3)nc2-c2cc(Cl)cc(NS(C)(=O)=O)c2F)n1 [Example 23]
24,7.34,CC(C)(C)c1nc(-c2cccc(NS(C)(=O)=O)c2Cl)c(-c2ccnc(N)n2)s1 [Example 24]
25,9.49,COC(=O)N[C@@H](C)CNc1nccc(-c2sc(C(C)(C)C)nc2-c2cccc(NS(C)(=O)=O)c2Cl)n1 [Example 25]
26,9.19,CCCS(=O)(=O)Nc1cccc(-c2nc(C(C)(C)C)sc2-c2ccnc(N)n2)c1Cl [Example 26]
27,7.36,CNc1nccc(-c2sc(C(C)(C)C)nc2-c2cccc(NS(C)(=O)=O)c2Cl)n1 [Example 27]

row,pIC50,Compound
1,8.96,CCCS(=O)(=O)Nc1cccc(-c2nc(C(C)(C)C)sc2-c2ccnc(NC)n2)c1Cl [Example 28]
2,8.47,CCCS(=O)(=O)Nc1cccc(-c2nc(C3CC3)sc2-c2ccnc(N)n2)c1Cl [Example 29]
3,8.92,CCCS(=O)(=O)Nc1cccc(-c2nc(C3CC3)oc2-c2ccnc(N)n2)c1Cl [Example 30]
4,8.89,CCCS(=O)(=O)Nc1cccc(-c2nc(C3CC3)oc2-c2ccnc(NC[C@H](C)NC(=O)OC)n2)c1Cl [Example 31]
5,7.36,CS(=O)(=O)Nc1cccc(-c2nc(C3CC3)sc2-c2ccnc(N)n2)c1Cl [Example 32]
6,9.38,COC(=O)N[C@@H](C)CNc1nccc(-c2sc(C3CC3)nc2-c2cccc(NS(C)(=O)=O)c2Cl)n1 [Example 33]
7,9.21,CCCS(=O)(=O)Nc1cccc(-c2nc(C(C)(C)C)sc2-c2ccnc(NC[C@H](C)NC(=O)OC)n2)c1F [Example 34]
8,8.74,CCCS(=O)(=O)Nc1cccc(-c2nc(C(C)(C)C)sc2-c2ccnc(N)n2)c1F [Example 35]
9,9.37,COC(=O)N[C@@H](C)CNc1nccc(-c2sc(C(C)(C)C)nc2-c2cccc(NS(C)(=O)=O)c2F)n1 [Example 36]
10,8.30,CCCS(=O)(=O)Nc1cccc(-c2nc(C3CC3)sc2-c2ccnc(NC)n2)c1F [Example 37]
11,9.23,CCCS(=O)(=O)Nc1cccc(-c2nc(C3CC3)oc2-c2ccnc(NC[C@H](C)NC(=O)OC)n2)c1F [Example 38]
12,8.68,CCCS(=O)(=O)Nc1cccc(-c2nc(C3CC3)oc2-c2ccnc(N)n2)c1F [Example 39]
13,9.92,CCCS(=O)(=O)Nc1cccc(-c2nc(C3CC3)sc2-c2ccnc(NC[C@H](C)NC(=O)OC)n2)c1F [Example 40]
14,7.96,CCCS(=O)(=O)Nc1cccc(-c2nc(C3CC3)sc2-c2ccnc(N)n2)c1F [Example 41]
15,8.51,COCC(=O)N[C@@H](C)CNc1nccc(-c2oc(-c3ccc(F)cc3)nc2-c2cc(C)cc(NS(C)(=O)=O)c2Cl)n1 [Example 42]
16,7.21,CCCNc1nccc(-c2oc(C3CC3)nc2-c2cccc(NS(C)(=O)=O)c2Cl)n1 [Example 43]
17,8.89,COC(=O)N[C@@H](C)CNc1nccc(-c2oc(C3CC3)nc2-c2cccc(NS(C)(=O)=O)c2Cl)n1 [Example 44]
18,7.77,CS(=O)(=O)Nc1cccc(-c2nc(C3CC3)oc2-c2ccnc(N)n2)c1Cl [Example 45]
19,9.02,CS(=O)(=O)Nc1cccc(-c2nc(C3CC3)oc2-c2ccnc(NCCC#N)n2)c1Cl [Example 46]
20,9.89,CCCS(=O)(=O)Nc1cc(Cl)cc(-c2nc(C(C)(C)C)sc2-c2ccnc(N)n2)c1Cl [Example 47]
21,9.15,CCCS(=O)(=O)Nc1cc(Cl)cc(-c2nc(C(C)(C)C)sc2-c2ccnc(NC[C@H](C)NC(=O)OC)n2)c1Cl [Example 48]
22,9.40,COC(=O)N[C@@H](C)CNc1nccc(-c2sc(C(C)(C)C)nc2-c2cc(Cl)cc(NS(C)(=O)=O)c2Cl)n1 [Example 49]
23,10.25,CCCS(=O)(=O)Nc1cc(Cl)cc(-c2nc(C3CC3)sc2-c2ccnc(N)n2)c1Cl [Example 50]
24,10.10,CCCS(=O)(=O)Nc1cc(Cl)cc(-c2nc(C3CC3)sc2-c2ccnc(NC)n2)c1Cl [Example 51]
25,9.62,CCCS(=O)(=O)Nc1cc(Cl)cc(-c2nc(C3CC3)sc2-c2ccnc(NC[C@H](C)NC(=O)OC)n2)c1Cl [Example 52]
26,9.35,CS(=O)(=O)Nc1cc(Cl)cc(-c2nc(C3CC3)sc2-c2ccnc(N)n2)c1Cl [Example 53]
27,9.34,CNc1nccc(-c2sc(C3CC3)nc2-c2cc(Cl)cc(NS(C)(=O)=O)c2Cl)n1 [Example 54]
